These results are taken from publication PMC5548612 (Drug and alcohol dependence, 2017).

What all share (assay): competitive radioligand binding
One assay concerns the target sigma-1 receptor.
Another assay has as its target T1, 5-HT2C receptor (Homo sapiens, UniProt P28335).
T1 sequence (P28335 33-458): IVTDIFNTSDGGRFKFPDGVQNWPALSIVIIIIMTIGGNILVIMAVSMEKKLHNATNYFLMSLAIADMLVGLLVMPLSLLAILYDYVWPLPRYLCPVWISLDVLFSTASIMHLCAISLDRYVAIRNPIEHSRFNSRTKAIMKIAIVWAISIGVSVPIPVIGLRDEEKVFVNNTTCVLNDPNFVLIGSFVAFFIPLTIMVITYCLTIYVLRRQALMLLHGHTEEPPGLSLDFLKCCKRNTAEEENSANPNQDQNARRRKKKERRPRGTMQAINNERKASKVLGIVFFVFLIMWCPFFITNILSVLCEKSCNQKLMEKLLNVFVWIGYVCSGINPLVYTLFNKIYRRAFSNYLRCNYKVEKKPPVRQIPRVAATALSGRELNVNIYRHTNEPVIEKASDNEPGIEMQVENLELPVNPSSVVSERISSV

The next assay has as its target 5-HT2B receptor (Homo sapiens, UniProt P41595).

Sequence of 5-HT2B receptor (P41595 whole entry): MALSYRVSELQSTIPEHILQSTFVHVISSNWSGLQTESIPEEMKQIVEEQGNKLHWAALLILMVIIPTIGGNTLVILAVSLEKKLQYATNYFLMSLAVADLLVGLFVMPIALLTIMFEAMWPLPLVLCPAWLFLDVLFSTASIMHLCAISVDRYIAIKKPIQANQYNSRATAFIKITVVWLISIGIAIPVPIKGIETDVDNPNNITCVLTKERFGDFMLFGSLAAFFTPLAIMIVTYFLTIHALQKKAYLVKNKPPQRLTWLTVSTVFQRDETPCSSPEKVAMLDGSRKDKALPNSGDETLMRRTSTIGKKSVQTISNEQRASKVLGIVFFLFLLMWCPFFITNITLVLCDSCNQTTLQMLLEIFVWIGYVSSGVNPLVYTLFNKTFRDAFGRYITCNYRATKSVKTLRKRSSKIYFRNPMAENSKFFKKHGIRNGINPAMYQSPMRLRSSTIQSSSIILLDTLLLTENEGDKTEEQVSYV

Consider `CN[C@@H](C)C(=O)c1ccc(C)cc1` [S-MEPH, S-mephedrone], for which the results for the Ki at sigma-1 receptor, on 5-HT2C receptor and on 5-HT2B receptor were 1500 nM, 3900 nM and 857 nM, respectively.
